Experimental data taken from ChEMBL document CHEMBL3588828, “A Selective, Cell-Permeable Nonphosphorylated Bicyclic Peptidyl Inhibitor against Peptidyl-Prolyl Isomerase Pin1” (J Med Chem, 2015).
The source made the active and inactive calls. The calls are words filed in the database; no cut-off is given here.

Key:
[1] = molecular target: T1, Peptidyl-prolyl cis-trans isomerase NIMA-interacting 1 (Homo sapiens, UniProt Q13526, S16A/Y23A); test: Binding affinity to N-terminal MBP fused and Texas-red-labeled full-length human Pin1 S16A/Y23A mutant expressed in Escherichia coli assessed as increase in fluorescence anisotropy by spectrofluorimetry; settings: read-out: Kd
T1 sequence (Q13526 whole entry S16A/Y23A, the tested form may be a part): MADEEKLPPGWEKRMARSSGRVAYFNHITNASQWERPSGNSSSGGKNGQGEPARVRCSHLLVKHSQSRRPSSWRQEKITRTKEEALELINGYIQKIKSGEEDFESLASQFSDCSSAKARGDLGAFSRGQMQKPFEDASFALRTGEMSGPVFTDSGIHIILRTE

Serum [2] = test: Drug level in 25% human serum treated with at 5 uM peptide-1 assessed as compound formation incubated at 37 degC by MALDI-TOF mass spectrometry; type: ADME, cell-free
[3] = Stability in 25% human serum assessed as compound degradation at 5 uM after 3 hrs incubated at 37 degC by reversed-phase HPLC method; type: ADME, cell-free; settings: read-out: Drug degradation
Serum [4] = test: Drug metabolism in 25% human serum assessed as compound 2 formation at 5 uM incubated at 37 degC by MALDI-TOF mass spectrometry; type: ADME, cell-free
HeLa [5] = test: Drug uptake in human HeLa cells assessed as mean fluorescence intensity at 5 uM using FITC-labeled compound incubated for 2 hrs by flow cytometry (reference value: 86); type: ADME, cell-based
HeLa [6] = test: Antiproliferative activity against human HeLa cells assessed as reduction in cell growth incubated for 72 hrs by MTT assay; type: functional, cell-based; settings: Homo sapiens, HeLa, 72 h; read-out: IC50
[7] = system: Peptidyl-prolyl cis-trans isomerase NIMA-interacting 1 (Homo sapiens), Q13526 [S16A,Y23A]; test: (§1) Inhibition of FITC-labeled peptide-1 binding to N-terminal MBP fused and Texas-red-labeled full-length human Pin1 S16A/Y23A mutant expressed in Escherichia coli assessed as increase in fluorescence anisotropy by spectrofluorimetry
Peptidyl-prolyl cis-trans isomerase NIMA-interacting 1 (Homo sapiens), Q13526 [S16A,Y23A], sequence (Q13526 whole entry S16A/Y23A, the tested form may be a part): as above

[8] = molecular target: T1, Peptidyl-prolyl cis-trans isomerase NIMA-interacting 1; test: as §1
[9] = system: Peptidyl-prolyl cis-trans isomerase NIMA-interacting 1 (Homo sapiens), Q13526 [S16A,Y23A]; test: (§2) Inhibition of N-terminal MBP fused and Texas-red-labeled full-length human Pin1 S16A/Y23A mutant expressed in Escherichia coli pre-incubated for 10 mins before addition of Suc-Ala-Glu-Pro-Phe-pNA substrate in presence of alpha-chymotrypsin by UV/Vis spectrophotometry
[10] = molecular target: T1, Peptidyl-prolyl cis-trans isomerase NIMA-interacting 1; test: as §2
Albumin = Albumin (Bos taurus, UniProt P02769); test: Binding affinity to bovine serum albumin; type: ADME
Albumin, sequence (P02769 whole entry): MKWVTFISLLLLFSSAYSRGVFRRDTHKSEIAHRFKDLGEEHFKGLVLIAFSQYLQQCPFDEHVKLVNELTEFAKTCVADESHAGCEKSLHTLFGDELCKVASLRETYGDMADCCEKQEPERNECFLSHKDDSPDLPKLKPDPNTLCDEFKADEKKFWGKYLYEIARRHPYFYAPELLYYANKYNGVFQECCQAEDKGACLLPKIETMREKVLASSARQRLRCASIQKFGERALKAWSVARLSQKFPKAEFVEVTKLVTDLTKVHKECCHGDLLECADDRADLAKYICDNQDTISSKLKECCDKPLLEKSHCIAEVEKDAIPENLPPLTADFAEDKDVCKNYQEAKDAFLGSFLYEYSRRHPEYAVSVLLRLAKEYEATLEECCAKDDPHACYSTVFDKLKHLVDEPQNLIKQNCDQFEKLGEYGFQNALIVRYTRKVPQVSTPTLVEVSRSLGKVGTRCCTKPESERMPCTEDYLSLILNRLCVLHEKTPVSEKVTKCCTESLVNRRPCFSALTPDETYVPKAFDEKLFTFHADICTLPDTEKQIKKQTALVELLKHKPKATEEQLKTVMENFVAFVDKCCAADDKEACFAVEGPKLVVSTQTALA

[11] = molecular target: T2, Tyrosine-protein phosphatase non-receptor type 1 (Homo sapiens) (UniProt P18031); test: Binding affinity to PTP1B (unknown origin)
T2 sequence (whole entry): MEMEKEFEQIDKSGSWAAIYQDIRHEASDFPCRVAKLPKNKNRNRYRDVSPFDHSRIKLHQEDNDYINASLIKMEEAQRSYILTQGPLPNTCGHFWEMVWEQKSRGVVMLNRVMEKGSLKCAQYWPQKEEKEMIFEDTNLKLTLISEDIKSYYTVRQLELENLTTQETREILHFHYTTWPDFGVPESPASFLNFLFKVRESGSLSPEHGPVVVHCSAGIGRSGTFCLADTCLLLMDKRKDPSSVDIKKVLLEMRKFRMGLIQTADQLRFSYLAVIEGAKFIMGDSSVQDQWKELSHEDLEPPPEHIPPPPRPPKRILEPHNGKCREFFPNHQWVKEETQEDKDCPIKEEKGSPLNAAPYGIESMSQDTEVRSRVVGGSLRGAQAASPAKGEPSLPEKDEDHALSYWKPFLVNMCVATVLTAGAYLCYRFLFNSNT

[12] = molecular target: Tyrosine-protein phosphatase non-receptor type 6 (Homo sapiens) (UniProt P29350); test: Binding affinity to SHP1 (unknown origin)
Tyrosine-protein phosphatase non-receptor type 6 (Homo sapiens), sequence (P29350 whole entry): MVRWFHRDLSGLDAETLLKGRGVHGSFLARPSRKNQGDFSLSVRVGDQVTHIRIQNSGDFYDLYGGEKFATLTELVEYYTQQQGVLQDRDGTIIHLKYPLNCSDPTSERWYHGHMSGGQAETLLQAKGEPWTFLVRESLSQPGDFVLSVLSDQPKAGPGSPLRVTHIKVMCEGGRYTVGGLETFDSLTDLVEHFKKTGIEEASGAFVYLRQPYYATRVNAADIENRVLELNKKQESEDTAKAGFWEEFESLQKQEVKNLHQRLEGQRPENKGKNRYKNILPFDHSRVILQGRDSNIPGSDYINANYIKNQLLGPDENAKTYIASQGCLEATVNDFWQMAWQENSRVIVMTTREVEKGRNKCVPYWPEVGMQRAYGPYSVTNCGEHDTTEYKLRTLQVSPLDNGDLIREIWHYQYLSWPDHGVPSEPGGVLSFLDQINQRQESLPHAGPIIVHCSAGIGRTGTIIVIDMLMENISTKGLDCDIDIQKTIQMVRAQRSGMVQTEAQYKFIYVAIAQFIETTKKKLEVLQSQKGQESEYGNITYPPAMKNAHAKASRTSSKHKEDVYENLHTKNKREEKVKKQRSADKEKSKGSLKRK

[13] = molecular target: T3, Tyrosine-protein phosphatase non-receptor type 11 (Homo sapiens) (UniProt Q06124); test: Binding affinity to SHP2 (unknown origin)
T3 sequence (whole entry): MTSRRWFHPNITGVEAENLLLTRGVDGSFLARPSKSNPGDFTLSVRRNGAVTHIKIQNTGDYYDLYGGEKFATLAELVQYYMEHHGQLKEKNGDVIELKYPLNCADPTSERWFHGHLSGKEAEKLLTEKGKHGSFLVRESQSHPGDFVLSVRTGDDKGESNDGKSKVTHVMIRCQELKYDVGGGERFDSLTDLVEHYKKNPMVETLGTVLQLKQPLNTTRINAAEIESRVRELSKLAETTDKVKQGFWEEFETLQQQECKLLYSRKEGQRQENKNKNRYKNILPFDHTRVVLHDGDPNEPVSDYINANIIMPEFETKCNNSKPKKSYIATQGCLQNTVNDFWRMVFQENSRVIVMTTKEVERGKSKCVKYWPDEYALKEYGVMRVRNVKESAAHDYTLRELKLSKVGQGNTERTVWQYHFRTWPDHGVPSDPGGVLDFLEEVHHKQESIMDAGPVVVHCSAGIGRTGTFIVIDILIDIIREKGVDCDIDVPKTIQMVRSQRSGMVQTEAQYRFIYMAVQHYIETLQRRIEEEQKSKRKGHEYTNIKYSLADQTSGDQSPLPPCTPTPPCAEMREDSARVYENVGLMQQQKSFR

[14] = molecular target: Growth factor receptor-bound protein 2 (Homo sapiens) (UniProt P62993); test: Binding affinity to Grb2 SH2 domain (unknown origin)
Growth factor receptor-bound protein 2 (Homo sapiens), sequence (P62993 whole entry, looked up, the tested form may be a part): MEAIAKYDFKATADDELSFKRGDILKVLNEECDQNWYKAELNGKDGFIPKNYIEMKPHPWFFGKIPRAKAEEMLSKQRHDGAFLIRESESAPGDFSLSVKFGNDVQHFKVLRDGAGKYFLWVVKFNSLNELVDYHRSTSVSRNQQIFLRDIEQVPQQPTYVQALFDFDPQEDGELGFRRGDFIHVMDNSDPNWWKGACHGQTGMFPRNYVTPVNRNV

[15] = molecular target: GTPase KRas (Homo sapiens) (UniProt P01116); test: Binding affinity to K-Ras (unknown origin)
GTPase KRas (Homo sapiens), sequence (P01116 whole entry, looked up): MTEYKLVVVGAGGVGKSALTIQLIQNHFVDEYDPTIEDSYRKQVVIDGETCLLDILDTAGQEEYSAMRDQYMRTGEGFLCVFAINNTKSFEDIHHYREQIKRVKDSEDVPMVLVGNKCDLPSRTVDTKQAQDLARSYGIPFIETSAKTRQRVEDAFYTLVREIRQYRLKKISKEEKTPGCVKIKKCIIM

[16] = molecular target: Tumor necrosis factor (Homo sapiens) (UniProt P01375); test: Binding affinity to TNFalpha (unknown origin)
Tumor necrosis factor (Homo sapiens), sequence (P01375 whole entry): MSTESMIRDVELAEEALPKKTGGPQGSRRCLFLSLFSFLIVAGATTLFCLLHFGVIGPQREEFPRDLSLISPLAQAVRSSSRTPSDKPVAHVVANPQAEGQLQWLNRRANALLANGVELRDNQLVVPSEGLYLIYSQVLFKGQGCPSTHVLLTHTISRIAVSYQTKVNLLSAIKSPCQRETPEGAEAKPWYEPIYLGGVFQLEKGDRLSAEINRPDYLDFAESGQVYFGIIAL

[17] = molecular target: T4, Peptidyl-prolyl cis-trans isomerase NIMA-interacting 4 (Homo sapiens, UniProt Q9Y237); test: Inhibition of Pin4 (unknown origin) at 5 uM pre-incubated for 10 mins before addition of Suc-Ala-Glu-Pro-Phe-pNA substrate in presence of alpha-chymotrypsin by UV/Vis spectrophotometry
T4 sequence (Q9Y237 whole entry): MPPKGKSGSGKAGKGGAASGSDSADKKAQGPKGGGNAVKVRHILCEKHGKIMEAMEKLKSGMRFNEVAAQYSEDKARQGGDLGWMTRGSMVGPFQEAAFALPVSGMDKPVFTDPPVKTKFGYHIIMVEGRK

[18] = molecular target: T4, Peptidyl-prolyl cis-trans isomerase NIMA-interacting 4; test: Inhibition of Pin4 (unknown origin) pre-incubated for 10 mins before addition of Suc-Ala-Glu-Pro-Phe-pNA substrate in presence of alpha-chymotrypsin by UV/Vis spectrophotometry
[19] = molecular target: Peptidyl-prolyl cis-trans isomerase A (Homo sapiens) (UniProt P62937); test: Inhibition of cyclophilin A (unknown origin) up to 5 uM pre-incubated for 10 mins before addition of Suc-Ala-Glu-Pro-Phe-pNA substrate in presence of alpha-chymotrypsin by UV/Vis spectrophotometry
Peptidyl-prolyl cis-trans isomerase A (Homo sapiens), sequence (P62937 whole entry, looked up): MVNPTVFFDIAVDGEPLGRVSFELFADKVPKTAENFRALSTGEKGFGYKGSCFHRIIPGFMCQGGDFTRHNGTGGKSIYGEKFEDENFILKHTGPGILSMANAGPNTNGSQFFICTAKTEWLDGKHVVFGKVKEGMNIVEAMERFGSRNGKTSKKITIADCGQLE

[20] = Stability in 25% human serum assessed as intact parent compound level at 5 uM after 6 hrs incubated at 37 degC by reversed-phase HPLC method; type: ADME, cell-free; settings: read-out: Stability
HeLa [21] = test: Growth inhibition of human HeLa cells at 5 uM incubated for 3 days by MTT assay; type: functional; settings: 72 h, read-out: GI
[22] = molecular target: Peptidyl-prolyl cis-trans isomerase NIMA-interacting 1 (Homo sapiens) (UniProt Q13526); test: Inhibition of Pin1 in human HeLa cells assessed as increase in PML protein levels at 0.2 uM incubated for 2 hrs by Western blotting method relative to untreated control; type: cell-based
Peptidyl-prolyl cis-trans isomerase NIMA-interacting 1 (Homo sapiens), sequence (Q13526 whole entry): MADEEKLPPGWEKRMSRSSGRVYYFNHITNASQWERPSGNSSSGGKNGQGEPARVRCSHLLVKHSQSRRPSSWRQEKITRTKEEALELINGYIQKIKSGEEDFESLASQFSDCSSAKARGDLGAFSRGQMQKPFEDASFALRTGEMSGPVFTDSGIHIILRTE

[23] = molecular target: Peptidyl-prolyl cis-trans isomerase NIMA-interacting 1 (Homo sapiens) (UniProt Q13526); test: Inhibition of Pin1 in human HeLa cells assessed as increase in PML protein levels at 1 uM incubated for 2 hrs by Western blotting method relative to untreated control; type: cell-based
FKBP1A = test: Inhibition of FKBP12 (unknown origin) up to 5 uM pre-incubated for 10 mins before addition of Suc-Ala-Glu-Pro-Phe-pNA substrate in presence of alpha-chymotrypsin by UV/Vis spectrophotometry; settings: Homo sapiens

SMILES: C[C@@H]1NC(=O)[C@H](CCCNC(=N)N)NC(=O)[C@H](Cc2ccc3ccccc3c2)NC(=O)[C@@H]2CCCCN2C(=O)[C@@H]([C@H](C)O)NC(=O)CN(C)C(=O)[C@@H](C)NC(=O)c2cc3cc(c2)C(=O)NC[C@H](NC(=O)[C@@H](C)NC1=O)C(=O)N[C@@H](Cc1ccccc1)C(=O)N[C@@H](Cc1ccc2ccccc2c1)C(=O)N[C@@H](CCCNC(=N)N)C(=O)N[C@@H](CCCNC(=N)N)C(=O)N[C@@H](CCCNC(=N)N)C(=O)N[C@@H](CCCNC(=N)N)C(=O)N[C@H](C(=O)N[C@@H](CCCCN)C(=O)O)CNC3=O
- Kd [1]: 620 nM
- Drug metabolism (Serum [2]): metabolite_detected

SMILES: C[C@@H]1NC(=O)[C@H](CCCNC(=N)N)NC(=O)[C@H](Cc2ccc3ccccc3c2)NC(=O)[C@@H]2CCCCN2C(=O)[C@@H]([C@H](C)OP(=O)(O)O)NC(=O)CN(C)C(=O)[C@@H](C)NC(=O)c2cc3cc(c2)C(=O)NC[C@H](NC(=O)[C@@H](C)NC1=O)C(=O)N[C@@H](Cc1ccccc1)C(=O)N[C@@H](Cc1ccc2ccccc2c1)C(=O)N[C@@H](CCCNC(=N)N)C(=O)N[C@@H](CCCNC(=N)N)C(=O)N[C@@H](CCCNC(=N)N)C(=O)N[C@@H](CCCNC(=N)N)C(=O)N[C@H](C(=O)N[C@@H](CCCCN)C(=O)O)CNC3=O
- Kd [1]: 72 nM
- metabolised at 3 h, 5 µM [3]: 50%
- Drug metabolism (Serum [4]): metabolite_detected
- Flu intensity (HeLa [5]): 2040
- IC50 (HeLa [6]): 2500 nM

SMILES: C[C@@H]1NC(=O)[C@H](CCCNC(=N)N)NC(=O)[C@H](Cc2ccc3ccccc3c2)NC(=O)[C@H]2CCCCN2C(=O)[C@@H]([C@H](C)O)NC(=O)[C@H](Cc2ccc(F)cc2)NC(=O)[C@@H](Cc2ccc(F)cc2)NC(=O)c2cc3cc(c2)C(=O)NC[C@H](NC(=O)[C@@H](C)NC1=O)C(=O)N[C@@H](Cc1ccccc1)C(=O)N[C@@H](Cc1ccc2ccccc2c1)C(=O)N[C@@H](CCCNC(=N)N)C(=O)N[C@@H](CCCNC(=N)N)C(=O)N[C@@H](CCCNC(=N)N)C(=O)N[C@@H](CCCNC(=N)N)C(=O)N[C@H](C(=O)N[C@@H](CCCCN)C(=O)O)CNC3=O
- Kd [1]: 120 nM
- inhibition [7]: Dose-dependent effect
- IC50 [8]: 190 nM
- inhibition [9]: Dose-dependent effect
- IC50 [10]: 170 nM
- Kd (Albumin): 20000 nM
- Activity [11]: inactive
- Activity [12]: inactive
- Activity [13]: inactive
- Activity [14]: inactive
- Activity [15]: inactive
- Activity [16]: inactive
- inhibition [17]: 15%
- IC50 [18]: 34000 nM
- inhibition [19]: inactive
- remaining at 6 h, 5 µM [20]: 97%
- Flu intensity (HeLa [5]): 8320
- IC50 (HeLa [6]): 1000 nM
- inhibition of growth at 5 µM (HeLa [21]): > 60%
- fold change (FC) [22]: 1.8
- fold change (FC) [23]: 3.3
- inhibition (FKBP1A): inactive
